The text below walks through data of patent publication EP0028959A1, “5,8,13,13a-Tetrahydro-6H-dibenzo(a,g)quinolizine derivatives, process for their preparation and pharmaceutical compositions containing them” (U.R.P.H.A., priority 1979, dated 1981).

Data set [1] in a line: Acute toxicity, DL 50 in mice (Litchfield and Wilcoxon method). As to conditions: mouse, in vivo, DL 50 and its upper and lower limits for p = 0,05. The format is in vivo, souris. How it is done: (§1) La DL 50 a été déterminée chez la souris par la méthode de LITCHFIELD et WILCOXON (J. Pharmacol. 1949 96, 99-113). Les dérivés étudiés ont été administrés en solution aqueuse additionnée de 7% de diméthylformamide, gavage oesophagien de 0,4 ml/20g) à des souris mâles pesant de 20 à 25g.
(§2) C'est pourquoi, il a été comparé au STB 0 par injection intrapéritonéale (même solution et même volume injectés par voie orale).

Data set [2] relates to oreillette droite isolée de cobaye. Description: Frequency of spontaneously beating isolated guinea pig right atrium. It is filed as cell-based. As to conditions: for Inhibition % du rythme de base / Inhibition % du rythme maximal en présence d'isoprotérénol: mean of 3 experiments ± erreur type; for effet sur la fréquence: result in words, comment on tableau 3. The text has this: (§3) Les effets sur le rythme et sur la concentration cardiaques ont été respectivement mis en évidence sur l'oreillette droite battant spontanément et sur l'oreillette gauche stimulée électriquement, suivant la technique décrite par GROSSMANN A., FURCHGOTT R. (J. Pharmacol. Exp. Ther. 1964, 143, 107-119).

The test system of data set [3] is aorte isolée du rat. In words: Inhibition of phenylephrine-induced contraction of isolated rat aorta. It is filed as cell-based. Conditions: read-out: EFFET SUR L'AORTE DE RAT I50. An excerpt:
(§4) L'inhibition des réponses contractiles maximales provoquées par la Phényléphrine ([…]) a été étudiée sur l'aorte isolée du rat préparée suivant la technique décrite par VALETTE,G. et BA MUOI, N. (Ann. Pharm. franc. 1962, 20, 557-582) et sur le segment proximal et le segment distal de l'artère caudale suivant la technique-décrite par WORCEL, M. (J. Pharmacol. Exp. Therm. 1978, 207, 210-330). Dans tous les cas, les dérivés STB se sont comportés comme de puissants antagonistes non compétitifs de la Phényléphrine. Leurs concentrations inhibitrices 50% (ID50) sont indiquées dans le tableau 2. Comme c'est le cas pour d'autres vasodilatateurs (comme l'Hydralazine), l'- artère caudale est plus sensible que l'aorte à l'effet inhibiteur des dérivés étudiés.

In data set [4] the test system is artère caudale proximale. In words: Inhibition of phenylephrine-induced contraction of isolated rat caudal artery, proximal segment. It is filed as cell-based. Conditions: read-out: EFFET SUR L'ARTERE CAUDALE DE RAT I50 SEGMENT PROXIMAL
Text: as §4

For data set [5], the system named is oreillette gauche isolée de cobaye. Description: Contractile force of electrically stimulated isolated guinea pig left atrium. As to conditions: for effet sur la force contractile: result in words, comment on tableau 3. It is filed as cell-based.
Text: as §3

For data set [6], the system named is effets hypertenseurs de l'adrénaline chez le chien. Conditions: Raymond Hamet 1952, 1953; cited from earlier work.
Data set [7] has as its system artère caudale distale. Description: Inhibition of phenylephrine-induced contraction of isolated rat caudal artery, distal segment. It is filed as cell-based. As to conditions: read-out: EFFET SUR L'ARTERE CAUDALE DE RAT I50 SEGMENT DISTAL.
Text: as §4

Data set [8] deals with muscle lisse. As to conditions: Raymond Hamet 1952, 1953; cited from earlier work.
The test system of data set [9] is patients hypertendus. Conditions: Faquet, Lisle et Combaz 1954; cited from earlier work.
Data set [10] has as its system souris. In words: Acute toxicity, DL 50 in mice (Litchfield and Wilcoxon method). Conditions: result in words, comment on tableau 4. It is filed as in vivo. How it is done: as §1, §2
Data set [11] deals with rat anesthésié par l' "Inactine". Description: Cardiac output (thermodilution), arterial pressure and peripheral vascular resistance in Inactine-anaesthetised rats. The format is in vivo. More on the design: Volume éjection systolique: unit not given here. As to conditions: Après: 45 minutes after 15 mg.kg^-1 i.p., n=7, mean ± erreur type. On the procedure: Les effets sur le débit cardiaque et la résistance vasculaire périphérique ont été mesurés chez le rat anesthésié par l' "Inactine" (70 mg.kg^-1), voie intrapéritonéale). Le débit a été mesuré par thermodilution suivant la technique décrite par HONDAS et al (Path. Biol. 1979, 17 1069-1078). La pression moyenne a été enregistrée à l'aide d'un cathéter placé dans l'artère fémorale du rat. Les mesures ont été faites avant et entre 45 et 60 minutes après l'administration intra-péritonéale des anti-hypertenseurs. Chaque chiffre expérimental représente la moyenne de trois mesures successives. Les résultats, donnés à titre d'exemple dans le tableau 1, ci-après,en ce qui concerne le STB 6, montrent que l'administration de l'anti-hypertenseur provoque une importante chute de pression artérielle imputable à une diminution marquée de la résistance vasculaire périphérique et sans variation significative du débit et du rythme cardiaques, ni du volume d'éjection systolique.

The nature of data set [12]: Solubility in the dosing solution (aqueous solution with 7% dimethylformamide). Conditions: reason why oral DL 50 could not be determined; result in words. It is filed as physicochemical. How it is done:
as §1, §2

Setting [13] is: contraction by phényléphrine 1.10^-5M, mean of at least 3 experiments ± erreur type.
The mark [14] stands for this setting: contraction by phényléphrine 1.10^-6M, mean of at least 3 experiments ± erreur type.
Where [15] appears, read: Concentration 5.10^-5 mole/l, stimulated at 2,5 Hz, mean of 3 experiments ± erreur type, read-out: Variation % de la force contractile de base.
Setting [16] is: contraction by phényléphrine 5.10^-6M, mean of at least 3 experiments ± erreur type.
Where [17] appears, read: read-out: Variation % de la force contractile de base.

SMILES strings stand for the structures. Like-named read-outs stand apart in the source and are kept apart here. Bounds are passed on as bounds.

On to `c1ccc2c(c1)CC1c3ccccc3CCN1C2` (stereo not drawn) [STB0, 5,8,13,13a-tétrahydro-6H-dibenzo [a,g] quinolizine, reference compound], for which the LD50 in data set [1] (po, per os, male mice 20 à 25g) came to 464 mg/kg; in [1] (ip.) it was 262 mg/kg. The “Inhibition % du rythme de base” value in data set [2] (Concentration 5.10^-5 mole/l) stood at 46 ± 5%. In addition, in data set [2] (Concentration 5.10^-5 mole/l), the “Inhibition % du rythme maximal en présence d'isoprotérénol” value was 38 ± 6%. Besides, the “effet sur la fréquence” value in data set [2] was “déprime fortement”. In addition, the IC50 in data set [3] (setting [13]) is 13 µM; in [4] (setting [14]) it was 300 nM; in data set [7] (setting [16]), 1300 nM. Besides, the activation at 50 µM in data set [5] (setting [15]) was -47%. Further, the “effet sur la force contractile” value in data set [5] is “déprime fortement”. For the same compound, the “effets hypertenseurs de l'adrénaline” value in data set [6] was “inverse les effets hypertenseurs de l'adrénaline”. The “contraction du muscle lisse provoquée par l'ion K^+” value in data set [8] is reported as “inhibe la contraction du muscle lisse”. The action hypotensive entry in data set [9] is “exerce une action hypotensive”.

On to `Oc1ccc2c(c1)CCN1Cc3ccccc3CC21` (stereo not drawn) [STB4, 3-hydroxy-5,8,13,13a-tétrahydro-6H-dibenzo [a, g] quinolizine], for which, in data set [1] (po, per os, male mice 20 à 25g), the median lethal dose (LD50) amounted to 464 mg/kg. Also, in data set [2] (Concentration 45.10^-5 mole/l), the “Inhibition % du rythme de base” value is on record as 13,8 ± 5,8%. Also, in [2] (Concentration 45.10^-5 mole/l), the “Inhibition % du rythme maximal en présence d'isoprotérénol” value is given as 28,7 ± 1,8%. Besides, in data set [2], the “effet sur la fréquence” value is on record as “subsistent de façon moins marquée”. Besides, the IC50 in data set [3] (setting [13]) came out at 26 µM; in data set [4] (setting [14]) it was 1000 nM; in [7] (setting [16]), 1900 nM. The “Variation % de la force maximale en présence d'isoprotérénol” value in data set [5] (Concentration 45.10^-5 mole/l, stimulated at 2,5 Hz, mean of 3 experiments ± erreur type) is recorded as 0%. Further, the activation at 450 µM in data set [5] (Concentration 45.10^-5 mole/l, stimulated at 2,5 Hz, mean of 3 experiments ± erreur type, read-out: Variation % de la force contractile de base) was 0%. For the same compound, the “effet sur la force contractile” value in data set [5] is on record as “ne diminuent pas la force contractile”.

Regarding `COc1cc2c(cc1OC)CN1CCc3cc(O)ccc3C1C2` (stereo not drawn) [STB6, 3-hydroxy-10,11-diméthoxy-5,8,13,13a-tétrahydro-6H-dibenzo [a, g] quinolizine], in [10], the “toxicité aiguë, comparison” value is listed as “le plus toxique”. Moreover, in data set [1] (po, per os, male mice 20 à 25g), the LD50 is 275 mg/kg. Also, the “Inhibition % du rythme de base” value in [2] (Concentration 5.10^-5 mole/l) stood at 8 ± 5%. The “Inhibition % du rythme maximal en présence d'isoprotérénol” value in data set [2] (Concentration 5.10^-5 mole/l) is reported as 21,6 ± 1,2%. In [2], the “effet sur la fréquence” value is “subsistent de façon moins marquée”. For the same compound, the figures for the IC50 in [3] (setting [13]), in data set [4] (setting [14]) and in data set [7] (setting [16]) were 59 µM, 1100 nM and 2100 nM, respectively. The “Volume éjection systolique” value in data set [11] (n.s., Avant: 0,71 ± 0,04) is recorded as 0,78 ± 0,035. Also, in [11] (n.s., Avant: 237,7 ± 12,9), the “débit cardiaque (DC)” value is recorded as 293,9 ±18,7 n.s. ml, mn.kg^-1. Moreover, the Rythme in [11] (n.s., Avant: 386 ± 11) is on record as 374 ± 12 n.s. systoles/mn. Moreover, the “pression artérielle moyenne (PA)” value in data set [11] (p≤ 0,01, Avant: 150,2 ± 3,9) is “‡‡‡ 89,1 ± 3,3 mmHg”. Further, the “résistance vasculaire périphérique totale (RVPt)” value in data set [11] (p≤ 0,01, Avant: 728,9 ± 29,2) is reported as “‡‡‡ 412,2 ± 17,8 dynes.mn.cm^-5.kg^-1”. In data set [5] (Concentration 5.10^-5 mole/l, stimulated at 2,5 Hz, mean of 3 experiments ± erreur type), the “Variation % de la force maximale en présence d'isoprotérénol” value turned out to be 0%. In data set [5] (setting [15]), the activation at 50 µM was determined as 32%. In addition, the “effet sur la force contractile” value in data set [5] is on record as “augmentent fortement la force contractile”.

Take `COc1cc2c(cc1OC)CN1CCc3cc(OC(=O)Cc4ccccc4)ccc3C1C2` (stereo not drawn) [STB52, 3-phénacétyloxy-10,11-diméthoxy-5,8,13,13a tétrahydro-6H-dibenzo [a, g] quinolizine]: the LD50 in data set [1] (po, per os, male mice 20 à 25g) is 550 mg/kg. For the same compound, in [2] (Concentration 5.10^-6 mole/l), the “Inhibition % du rythme de base” value is 14 ± 7%. The “Inhibition % du rythme maximal en présence d'isoprotérénol” value in [2] (Concentration 5.10^-6 mole/l) is 17 ± 3%. The “effet sur la fréquence” value in data set [2] is recorded as “subsistent de façon moins marquée”. Further, the IC50 in data set [3] was found to be 51 µM; in data set [4] it was 2100 nM; in [7], 4300 nM. Further, in data set [5] (setting [17]), the activation at 5 µM stood at 90%. Besides, the “effet sur la force contractile” value in data set [5] is reported as “augmentent fortement la force contractile”.

With `O=C(Cc1ccccc1)Oc1ccc2c(c1)CCN1Cc3ccccc3CC21` (stereo not drawn) [STB69, 3-phénacétyloxy-5,8,13,13a-tétrahydro-6H-dibenzo-[a, g] quinolizine], the solubilité result in data set [12] was “solubilité insuffisante”. In addition, the “toxicité aiguë, comparison” value in [10] is listed as “le moins toxique”. Besides, the LD50 in data set [1] (po, per os, male mice 20 à 25g) is above 650 mg/kg; in [1] (ip.), 378 mg/kg. Moreover, the “Inhibition % du rythme de base” value in [2] (Concentration 5.10^-5 mole/l) came out at 0%. The “Inhibition % du rythme maximal en présence d'isoprotérénol” value in data set [2] (Concentration 5.10^-5 mole/l) is 12,5 ± 2,7%. Besides, in data set [2], the “effet sur la fréquence” value was “pratiquement dépourvu d'action”. Besides, the IC50 in [3] turned out to be 58 µM; in data set [4], 1500 nM; in [7], 3100 nM. In addition, in data set [5] (setting [17]), the activation at 50 µM came to 12.6%. In addition, the “effet sur la force contractile” value in [5] is recorded as “pratiquement dépourvu d'action”.
